Measurements taken from patent US9469645B2, “Compounds and compositions for the treatment of parasitic diseases” (Novartis AG, priority 2009, dated 2016).
pEC50: −log10 of the molar value. Like-named read-outs stand apart in the source and are kept apart here.

Columns and labels:
3D7 P. falciparum strain = test: parasite proliferation assay in infected red blood cells (SYBR Green I); type: cell-based, Plasmodium falciparum; settings: 3D7 strain, read-out: EC50 3D7 strain
Method in brief: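 P. falciparum 3D7 grown in O+ human erythrocytes to 3–8% parasitemia and exposed to compounds. Proliferation read as the increase in parasite DNA. Detection used SYBR Green I in saponin/triton-X/EDTA lysis buffer, with overnight lysis at room temperature.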

W2 strain = test: parasite proliferation assay in infected red blood cells (SYBR Green I), W2 strain; type: cell-based
Source text: Compounds of the invention can be assayed to measure their capacity to inhibit proliferation of parasitemia in infected red blood cells. The proliferation is quantified by the addition of SYBR Green I (INVITROGEN)® dye which has a high affinity for double stranded DNA.

[1] = Plasmodium falciparum, 3D7, Erythrocyte
[2] = Plasmodium falciparum, Erythrocyte

| Compound | pEC50 (3D7 P. falciparum strain; [1]) | pEC50 (W2 strain; Erythrocyte) | pEC50 (3D7 P. falciparum strain) | pEC50 (W2 strain) | pEC50 (W2 strain; [2]) |
| --- | --- | --- | --- | --- | --- |
| Cc1ccc(Nc2c(-c3ccc(F)cc3)nc3n2CCN(C(=O)CNc2cccc(Cl)c2)C3)cc1 [Compound 361] | 5.63 | 5.94 |  |  |  |
| CCCCCNC(=O)C[C@H](NC(=O)OC(C)(C)C)C(=O)N1CCn2c(nc(-c3cccc(F)c3)c2Nc2ccc(F)cc2)C1 [Compound 250] | 5.41 | 5.40 |  |  |  |
| Cc1ccc(Nc2c(-c3ccc(F)cc3)nc3n2CCN(C(=O)[C@H]2CCCO2)C3)cc1 [Compound 199] | 6.62 | 6.80 |  |  |  |
| O=C(CN1CC[C@@H](F)C1)N1CCn2c(nc(-c3ccc(F)cc3)c2Nc2ccc(F)cc2)C1 [Compound 58] | 6.33 | 6.55 |  |  |  |
| CC(C)(N)C(=O)N1CCn2c(nc(-c3ccc(F)cc3)c2Nc2ccc3c(c2)OCO3)C1 [Compound 5] | 5.36 | < 5.05 |  |  |  |
| NCC(=O)N1CCn2c(nc(-c3ccccc3)c2Nc2ccc3c(c2)OCO3)C1 [Example 1, 2-amino-1-(3-(benzo[d][1,3]dioxol-5-ylamino)-2-phenyl-5,6-dihydroimidazo[1,2-a]pyrazin-7(8H)-yl)ethanone] | 6.34 | 6.33 |  |  |  |
| NCC(=O)N1CCn2c(nc(-c3ccccc3)c2NC2CCCC2)C1 [Compound 7] | 4.80 | 5.11 |  |  |  |
| Cc1ccc(Nc2c(-c3ccc(F)cc3)nc3n2CCN(C(=O)C2CCNC2)C3)cc1 (stereo not shown) [Compound 95] |  |  | 5.81 | 6.15 |  |
| CC(C)(N)C(=O)N1CCn2c(nc(-c3cc(F)cc(F)c3)c2Nc2ccc(F)cc2)C1 [Compound 13] | 6.59 | 6.86 |  |  |  |
| C[C@@H](C(=O)N1CCn2c(nc(-c3cccc(F)c3)c2Nc2ccc(Cl)c(F)c2)C1)c1ccccc1 [Compound 222] | 6.85 | 6.99 |  |  |  |
| CC(C)(N)C(=O)N1CCn2c(nc(-c3ccc(F)cc3)c2Nc2cc(F)cc(F)c2)C1 [Compound 66] | 6.66 | 6.61 |  |  |  |
| Cc1ccc(Nc2c(-c3ccc(F)cc3)nc3n2CCN(C(=O)C(N)CC(F)(F)F)C3)cc1 (stereo not shown) [Compound 142] | 7.10 | 6.92 |  |  |  |
| Cc1ccc(Nc2c(-c3ccc(F)cc3)nc3n2CCN(C(=O)C2(N)CCCCC2)C3)cc1 [Compound 141] | 7.15 | 7.05 |  |  |  |
| Cc1ccc(Nc2c(-c3ccc(F)cc3)nc3n2CCN(C(=O)C2(O)CC2)C3)cc1 [Compound 99] | 6.09 | 6.18 |  |  |  |
| CC(C)(N)C(=O)N1CCn2c(nc(-c3ccc(F)cc3)c2Nc2ccc(F)cc2F)C1 [Compound 79] | 6.96 | 7.05 |  |  |  |
| Cc1ccc(Nc2c(-c3ccc(F)cc3)nc3n2CCN(Cc2ccc(N4CCOCC4)cc2)C3)cc1 [Compound 180] | 6.14 | 6.22 |  |  |  |
| CC1(C)c2nc(-c3ccc(F)cc3)c(Cc3ccc(F)c(F)c3)n2CCN1C(=O)CN [Compound 696] | 7.70 |  |  |  | 7.66 |
| Cc1ccc(Nc2c(-c3ccc(F)cc3)nc3n2CCN(C(=O)[C@@H]2Cc4[nH]cnc4CN2)C3)cc1 [Compound 176] | 5.56 | 5.75 |  |  |  |
| Cc1ccc(Nc2c(-c3ccc(F)cc3)nc3n2CCN(C(=O)CN(CCO)CCO)C3)cc1 [Compound 161] | 6.27 | 6.29 |  |  |  |
| Cc1ccc(Nc2c(-c3ccc(F)cc3)nc3n2CC(=O)N(CCN(C)C)C3(C)C)cc1Cl [Compound 682] | 6.91 |  |  |  | 6.95 |

| Compound | pEC50 (3D7 P. falciparum strain; [1]) | pEC50 (W2 strain; Erythrocyte) | pEC50 (3D7 P. falciparum strain) | pEC50 (W2 strain) | pEC50 (W2 strain; [2]) |
| --- | --- | --- | --- | --- | --- |
| N[C@H](Cc1ccccc1)C(=O)N1CCn2c(nc(-c3ccc(F)cc3)c2Nc2ccc(F)cc2)C1 [Compound 20] | 6.96 | 6.92 |  |  |  |
| O=C(CN1CCCC(O)C1)N1CCn2c(nc(-c3ccc(F)cc3)c2Nc2ccc(F)cc2)C1 (stereo not shown) [Compound 64] | 5.03 | 5.19 |  |  |  |
| N#Cc1ccc(Nc2c(-c3ccc(F)cc3)nc3n2CCNC3)cc1 [Compound 249] | 5.27 | 5.30 |  |  |  |
| NCCCC(=O)N1CCn2c(nc(-c3ccc(F)cc3)c2Nc2ccc(F)cc2)C1 [Compound 18] | 4.91 | 5.09 |  |  |  |
| Cc1ccc(Nc2c(-c3ccc(F)cc3)nc3n2CCN(C(=O)[C@@H](O)C(C)(C)C)C3)cc1 [Compound 110] | 7.70 | 7.82 |  |  |  |
| O=C(CN1CCC(F)CC1)N1CCn2c(nc(-c3ccc(F)cc3)c2Nc2ccc(F)cc2)C1 [Compound 60] | 5.61 | 5.67 |  |  |  |
| Cc1ccc(Nc2c(-c3cccc(Cl)c3)nc3n2CCNC3)cc1 [Compound 279] | 5.45 | 5.42 |  |  |  |
| CC(C)(C)CC(C)(C)Nc1c(-c2ccccc2OC(F)F)nc2ccccn12 [Compound 742] | 5.19 |  |  |  | 4.94 |
| CC(C)C[C@@H](N)C(=O)N1CCn2c(nc(-c3ccc(F)cc3)c2Nc2ccc(Cl)c(F)c2)C1 [Compound 394] | 7.30 | 7.37 |  |  |  |
| Cc1cc(C)cc(Sc2c(-c3ccc(F)cc3)nc3n2CCN(C(=O)CN)C3(C)C)c1 [Compound 717] | 7.59 |  |  |  | 7.80 |
| CCC(=O)Nc1ccc(C[C@H](N)C(=O)N2CCn3c(nc(-c4cccc(F)c4)c3Nc3ccc(F)cc3)C2)cc1 [Compound 261] | 5.15 | 5.38 |  |  |  |
| CCCCCNCC(=O)N1CCn2c(nc(-c3ccc(F)cc3)c2Nc2ccc(C)cc2)C1 [Compound 308] | 7.22 | 7.17 |  |  |  |
| CC(C)(N)C(=O)N1CCn2c(nc(-c3ccc(F)cc3)c2Cc2ccc(F)cc2)C1 [Compound 697] | 6.44 |  |  |  | 6.59 |
| CC(C)(C)CC(C)(C)Nc1c(C(c2ccccc2)c2ccccc2)nc2ccccn12 [Compound 739] | 6.11 |  |  |  | 6.06 |
| Cc1ccc(Nc2c(-c3ccc(F)cc3)nc3n2CCN(C(=O)C2CCCNC2)C3)cc1 (stereo not shown) [Compound 92] |  |  | 5.89 | 5.83 |  |
| O=C(Cn1ccc2ccccc21)N1CCn2c(nc(-c3ccc(F)cc3)c2Nc2ccc(Cl)c(F)c2)C1 [Compound 303] | 6.27 | 6.36 |  |  |  |
| CC1(C)c2nc(-c3ccc(F)cc3)c(Nc3ccc(F)cc3)n2CCN1C(=O)CNC(=O)CCc1ccc2oc3ccccc3c2c1 [Compound 727] | 5.18 |  |  |  | 5.53 |
| Cc1ccc(-c2c(-c3ccc(F)cc3)nc3n2CCN(C(=O)CN)C3(C)C)cc1 [Compound 704, 2-amino-1-(2-(4-fluorophenyl)-8,8-dimethyl-3-p-tolyl-5,6-dihydroimidazo-[1,2-a]pyrazin-7(8H)-yl)ethanone] | 6.63 |  |  |  | 6.63 |
| COCCCNCC(=O)N1CCn2c(nc(-c3ccc(F)cc3)c2Nc2ccc(C)cc2)C1 [Compound 310] | 6.28 | 6.40 |  |  |  |
| CC[C@H](C(=O)N1CCn2c(nc(-c3ccc(F)cc3)c2Nc2ccc(C)cc2)C1)c1ccccc1 [Compound 225] | 6.26 | 6.50 |  |  |  |

| Compound | pEC50 (3D7 P. falciparum strain; [1]) | pEC50 (W2 strain; Erythrocyte) | pEC50 (3D7 P. falciparum strain) | pEC50 (W2 strain) | pEC50 (W2 strain; [2]) |
| --- | --- | --- | --- | --- | --- |
| COc1ccc(CN2Cc3nc(-c4ccc(F)cc4)c(Nc4ccc(Cl)c(F)c4)n3C(C)(C)C2=O)cc1 [Compound 613] | 5.20 |  |  |  | 5.24 |
| COc1ccc(Cc2c(-c3ccc(F)cc3)nc3n2CCN(C(=O)CN)C3(C)C)cc1 [Compound 695, 2-amino-1-(2-(4-fluorophenyl)-3-(4-methoxybenzyl)-8,8-dimethyl-5,6-dihydroimidazol[1,2-a]pyrazin-7(8H)-yl)ethanone] | 7.77 |  |  |  | 7.72 |
| Cc1ccc(Nc2c(-c3ccc(F)cc3)nc3n2CCN(C(=O)C(O)c2ccc(F)cc2)C3)cc1 (stereo not shown) [Compound 107] | 8.00 | 8.00 |  |  |  |
| Cc1ccc(Nc2c(-c3ccc(F)cc3)nc3n2CCN(C(=O)C2(O)CCCC2)C3)cc1 [Compound 116] | 5.79 | 5.82 |  |  |  |
| Cc1ccc(Nc2c(-c3ccc(F)cc3)nc3n2CCN(C(=O)CNC(=N)N)C3)cc1 [Compound 167] | 6.74 | 6.84 |  |  |  |
| CC1(C)c2nc(-c3ccc(F)cc3)c(-c3ccc(F)cc3)n2CCN1C(=O)CN [Compound 705] | 5.91 |  |  |  | 6.12 |
| NC(C(=O)N1CCn2c(nc(-c3ccc(F)cc3)c2Nc2ccc(Cl)c(F)c2)C1)c1ccc(Cl)cc1 (stereo not shown) [Compound 369] | 6.96 | 7.08 |  |  |  |
| CNCC(=O)N1CCn2c(nc(-c3ccc(F)cc3)c2Nc2ccc(C)cc2)C1 [Compound 75] | 6.60 | 6.72 |  |  |  |
| CC(C)CNCC(=O)N1CCn2c(nc(-c3ccc(F)cc3)c2Nc2ccc(F)cc2)C1 [Compound 69] | 7.10 | 7.03 |  |  |  |
| NCC(=O)N1CCn2c(nc(-c3ccc(F)cc3)c2Nc2ccc(F)cc2)C1 [Compound 4] | 7.70 | 7.64 |  |  |  |
| N[C@@H](C(=O)N1CCn2c(nc(-c3ccc(F)cc3)c2Nc2ccc(F)cc2)C1)C(F)(F)F [Compound 196] | 6.49 | 6.46 |  |  |  |
| Cc1ccc(NCC(=O)N2CCn3c(nc(-c4ccc(F)cc4)c3Nc3ccc(C)cc3)C2)cc1 [Compound 362] | 6.09 | 6.69 |  |  |  |
| Cc1ccc(Nc2c(-c3ccc(F)cc3)nc3n2CCN(C(=O)C(O)c2cccc(C(F)(F)F)c2)C3)cc1 (stereo not shown) [Compound 124] | 7.40 | 7.55 |  |  |  |
| CC1(C)c2nc(-c3ccc(F)cc3)cn2CCN1C(=O)C(N)CCc1ccc(Cl)cc1 (stereo not shown) [Compound 702] | 5.22 |  |  |  | 5.23 |
| Cc1ccc(Nc2c(-c3ccc(F)cc3)nc3n2CCN(C(=O)CC(C)(C)O)C3)cc1 [Compound 100] | 6.82 | 6.84 |  |  |  |
| CC(=O)NCCCCNCC(=O)N1CCn2c(nc(-c3ccc(F)cc3)c2Nc2ccc(C)cc2)C1 [Compound 154] | 5.37 | 5.47 |  |  |  |
| Cc1ccc(-c2c(-c3ccc(Cl)cc3)nc3cnccn23)cc1 [Compound 24] | 5.05 | 5.54 |  |  |  |
| O=C(CN1CCCC1)N1CCn2c(nc(-c3ccc(F)cc3)c2Nc2ccc(F)cc2)C1 [Compound 33] | 6.13 | 5.79 |  |  |  |
| NC(C(=O)N1CCn2c(nc(-c3ccc(F)cc3)c2Nc2ccc(F)cc2)C1)C(F)(F)F (stereo not shown) [Compound 50] | 6.74 | 6.73 |  |  |  |
